The record followed here is article PMC10732325 (ACS catalysis, 2023).

For assay [1], the target named is VldE (Streptomyces hygroscopicus, UniProt Q15JG1, D158N). In words: X-ray crystal structure. The assay is classed as binding. The following applies: apo crystals soaked with 10 mM GDP-glucose, only GDP found; pH 8.5.
Assay [2] addresses VldE (Streptomyces hygroscopicus, UniProt Q15JG1, H182A). The assay is described as follows: X-ray crystal structure. Format: binding. The following applies: apo crystals soaked with 10 mM GDP-glucose, only GDP found; pH 8.0.

VldE (Streptomyces hygroscopicus, UniProt Q15JG1, D158N), sequence (Q15JG1 whole entry D158N): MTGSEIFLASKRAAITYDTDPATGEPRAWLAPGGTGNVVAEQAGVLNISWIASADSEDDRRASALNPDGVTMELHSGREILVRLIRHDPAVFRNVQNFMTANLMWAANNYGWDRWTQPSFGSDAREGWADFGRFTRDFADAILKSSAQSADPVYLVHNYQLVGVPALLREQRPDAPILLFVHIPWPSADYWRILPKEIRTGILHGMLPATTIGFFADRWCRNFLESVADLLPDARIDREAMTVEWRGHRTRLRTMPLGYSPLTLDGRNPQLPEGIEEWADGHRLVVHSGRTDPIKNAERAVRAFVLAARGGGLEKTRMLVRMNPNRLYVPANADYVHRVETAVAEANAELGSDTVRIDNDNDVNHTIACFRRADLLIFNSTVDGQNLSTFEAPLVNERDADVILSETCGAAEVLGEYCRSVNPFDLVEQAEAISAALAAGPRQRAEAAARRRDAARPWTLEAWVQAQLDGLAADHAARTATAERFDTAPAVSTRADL
VldE (Streptomyces hygroscopicus, UniProt Q15JG1, H182A), sequence (Q15JG1 whole entry H182A): as the sequence (Q15JG1 whole entry D158N) above, with N158D, H182A counted along it

As for `Nc1nc2c(ncn2[C@@H]2O[C@H](COP(=O)(O)OP(=O)(O)O)[C@@H](O)[C@H]2O)c(=O)[nH]1` [GDP], the X-ray crystal structure entry at VldE [1] and at VldE [2] was “only the crystal structures of the two variants in complex with GDP were obtained” each time.
